Experimental data: US7307166B1, “Oxpurine nucleosides and their congeners, and acyl, derivatives thereof, for improvement of hematopoiesis” (Wellstat Therapeutics Corporation, priority 1987, dated 2007)

Columns and labels:
[1] = test system: Normal Balb/C female mice; assay: Hematopoiesis in normal mice; format: in vivo, mouse; conditions: for number of myelocytes (femoral bone marrow) / spleen weight: Ex 56: fifth day; for number of myelocytes (femoral bone marrow): 2.6 μmoles/mouse daily 4 days; for spleen weight: 2.6 μmoles/mouse i.p. daily 4 days; for spleen weights: 2.5 Moles/mouse/day i.p.
Experimental: Normal, otherwise untreated, female Balb/C mice weighing approximately 20 grams each received a total of 4 or 9 0.4 ml intraperitoneal injections (one per day) of either Tween-80 (0.2%) (controls), palmitoylguanosine ([…]), or palmitoyldeoxyinosine ([…]). Twenty-four hours after the 4th or 9th treatment, groups of 5 or 6 animals from each of the 3 groups were bled and then sacrificed by cervical dislocation. Spleens were removed and weighed, and complete blood cell counts performed.
Normal Balb/C female mice weighing approximately 20 grams each were given a daily 0.4 ml i.p. injection of either physiological saline (controls), palmitoylguanosine (2.6 μmoles/mouse), palmitoyldeoxyguanosine (2.6 μmoles/mouse), monopalmitoylguanosine 2′,3′-acyclic dialcohol (2.6 μmoles/mouse), and palmitoyl-8-bromoguanosine (2.6 μmoles/mouse) for 4 days. On the fifth day all 3 animals in each of the 5 groups were bled and then sacrificed by cervical dislocation. Spleens were removed and weighed, and complete blood cell counts performed. Femoral bone marrow from each mouse was collected and a differential cell count performed on marrow smears.

[2] = test system: Balb/C female mice; assay: Hematopoietic recovery after cyclophosphamide in mice (spleen weight, blood cell counts); format: in vivo, mouse
[3] = test system: Balb/C female mice; assay: as above; format: in vivo, mouse; conditions: Ex 48: day 7 after CP; 2.5 μmoles/mouse
Experimental: Twenty-four hours later and each day thereafter for a total of 6 days, mice were given a 0.4 ml i.p. injection of either physiological saline (controls), guanine (5 μmoles/mouse/day), or guanosine (5 μmoles/mouse/day). On day 7 all 10 mice in each of the three groups were bled, and then sacrificed by cervical dislocation. Spleens were removed and weighed, and complete blood cell counts performed.
Twenty-four hours later and each day thereafter for a total of 6 days, mice were given a 0.4 ml i.p injection of either physiological saline (controls), Tween 80 (0.2%), guanosine (5 μmoles/mouse/day in 0.2% Tween 80), or 2.5 μmoles per mouse per day of one of the following acylated derivatives of guanosine in 0.2% Tween 80: triacetylguanosine, octanoylguanosine, lauroylguanosine, or palmitoylguanosine. On day 7 following CP administration all 10 animals from each of the 7 groups were bled, and then sacrificed by cervical dislocation. Spleens were removed and weighed, and complete blood counts performed.
Twenty-four hours later treatment was begun. Mice were given a 0.4 ml i.p. injection of either physiological saline (controls), Tween 80 (0.2%), or palmitoylguanosine (5 μmoles/mouse/day in 0.2% Tween 80). The timing of the treatments was varied within the groups. The control group was given saline on days 1-6. The mice receiving Tween 80 were treated either on days 1-4, 4-6 or 1-6. Palmitoylguanosine-treated mice were treated either on days 1-2, 1-4, 3-5, 4-6 or 1-6. If a group of mice received no Tween 80 or palmitoylguanosine on a given day, saline was administered by i.p. injection. Thus, there were 9 groups of 9 animals in all. On day 7 following CP administration all of the animals were bled and then sacrificed by cervical dislocation. Spleens were removed and weighed, and complete blood cell counts performed.
Twenty-four hours later and each day thereafter for a total of 6 days, mice were given a 0.4 ml i.p. injection of either physiological saline (controls), Tween 80 (0.5%), or one of three different doses of octanoylguanosine (0.5, 2.5, or 5 μmoles/mouse/day in 0.5% Tween 80). On day 7 following CP administration all 9 animals from each of the […] were bled and then sacrificed by cervical dislocation. Spleens were removed and weighed, and complete blood cell counts performed.
Twenty-four hours later and each day thereafter for a total of 6 days, mice were given a 0.4 ml i.p. injection of either physiological saline (controls), Tween 80 (0.5%), or octanoylguanosine (5.0 μmoles/mouse/day in 0.5% Tween 80). On day 7 following CP administration all 10 animals from each of the 3 groups were bled and then sacrificed by cervical dislocation. Spleens were removed, weighed, and fixed in 10% formalin for later histological examination. Complete blood cell counts were performed on the collected blood.
Twenty-four hours later and each day thereafter for a total of 6 days, mice were given a 0.4 ml i.p. injection of either physiological saline (controls), benzoylguanosine (2.5 μmoles/mouse/day in 0.2% Tween 80), or palmitoylguanosine (2.5 μmoles/mouse/day in 0.2% Tween 80). On days 7 and 10 following CP administration 8 animals from each of the 3 groups were bled and then were sacrificed by cervical dislocation. Spleens were removed and weighed, and complete blood cell counts performed.
Twenty four hours later and each day thereafter for a total of 4 or 6 days, mice were given a 0.4 ml i.p. injection of either physiological saline (controls), palmitoyldeoxyinosine (2.5 μmoles/mouse), or palmitoyl-xanthosine (2.5 μmoles/mouse). On days 5 and 7 following CP administration 6 of the 12 animals in each of the 3 groups were bled and then sacrificed by cervical dislocation. Spleens were removed and weighed, and complete blood cell counts performed.

[4] = test system: human myeloid leukemia cell line (HL-60); conditions: incubation of HL-60 cells; cited from earlier work
[5] = test system: Balb/C female mice; assay: Hematopoietic recovery after 5-fluorouracil in mice; format: in vivo, mouse
Experimental: 5-fluorouracil (5-FU) (150 mg/kg, i.p.) was administered to forty Balb/C female mice weighing approximately 20 grams each. Twenty-four hours later and each day thereafter for a total of 8 days, mice were given a 0.4 ml i.p. injection of either physiological saline (controls) or 5′-O-palmitoylguanosine (2.5 μmoles/mouse/day in 0.2% Tween 80). On days 7 and 14 following 5-FU administration half of the animals from each group were bled and then were sacrificed by cervical dislocation. Spleens were removed and weighed, and complete blood cells counts performed.
5-fluorouracil (5-FU) (150 mg/kg, i.p.) was administered to fifty-four Balb/C female mice weighing approximately 20 grams each. Twenty-four hours later and each day thereafter for a total of 7 days, mice were given a 0.4 ml i.p. injection of either physiological saline (controls) or palmitoylguanosine (2.5 μmoles/mouse/day in 0.2% Tween 80). On days 8, 10 and 12 following administration of 5-FU nine animals from each group were bled and then sacrificed by cervical dislocation. Spleens were removed and weighed, and complete blood cell counts performed.
Twenty-eight female Balb/C mice weighing approximately 20 grams each received a 0.4 ml i.p. injection of either physiological saline (controls), or palmitoyldeoxyguanosine (1 μmole/mouse) daily for three days. On the fourth day 5-fluorouracil (5-FU) (150 mg/kg, i.p.) was administered to all 28 of the animals. On days 5, 8 and 11 following 5-FU administration 4 (day 5) or 5 (days 8 and 11) animals from both groups were bled and then sacrificed by cervical dislocation. Spleens were removed and weighed, and complete blood cell counts performed. […]
Sixty female Balb/C mice weighing approximately 20 grams each were distributed into one of five treatment groups and treated once daily for three days by i.p. injection with 3′,5′-O—N^2-tripalmitoyl-2′-deoxyguanosine at a dose of either 1, 5, 10, 25, or 50 mg/kg/treatment in a Tween-DMSO vehicle (0.2% Tween-80 and 7.5% DMSO in physiological saline). Injection volume was 0.4 ml. An additional twelve animals (controls) received vehicle alone on those three days. On the fourth day all seventy-two animals received a single i.p. injection of 5-fluorouracil (5-FU) at a dose of 150 mg/kg. On days 7 and 10 following 5-FU administration six mice from each group were bled and then sacrificed by cervical dislocation. Six untreated mice were also bled and sacrificed to provide data on normal (basal) values. Spleens were removed and weighed, and complete blood cell counts performed.

[6] = test system: F344 male rats; assay: Recovery of blood cell counts in rats after cyclophosphamide; format: in vivo, rat
Experimental: Cyclophosphamide (CP) (40 mg/kg, i.p.) was administered to 16 F344 male rats weighing approximately 200 grams each. Twenty-four hours later and each day thereafter rats were given a 0.5 ml i.p. injection of either physiological saline (controls), or palmitoyldeoxyguanosine at a dose of 10 μmoles/rat. On days 5, 7 and 10 following CP administration all 8 animals from both groups were bled and complete blood cell counts performed. On day 10 all of the rats were sacrificed and their spleens removed and weighed.

[7] = test system: IL-3-dependent bone marrow cells; assay: Apoptosis of IL-3-dependent bone marrow cells deprived of IL-3 (trypan blue exclusion); format: cell-based, mouse
Experimental: Bone marrow cells were obtained by flushing the femurs of three male B6D2F1 mice. The cells were plated at 5.0×10^5/ml in MEM plus 10% fetal calf serum and 25 Units/ml of recombinant IL-3 for 24-48 hours. Non-adherent cells were then separated from adherent cells and maintained for an additional twelve days. IL-3 washed from cells, and cells were plated in MEM plus 10% fetal calf serum in the presence or absence of IL-3 and with or without the addition of palmitoyldeoxyguanosine (10 micrograms per milliliter) or deoxyguanosine (10 micrograms per milliliter). Cells were counted using the trypan blue exclusion method, and the percent of dead cells (trypan blue positive) was determined at 24, 40, 60 and 84 hours following the wash.

[8] = Ex 50: day 5 after CP, 2 μmoles/mouse
[9] = Ex 48: day 5 after CP, 2.5 μmoles/mouse
[10] = Ex 57: day 8 after 5-FU, pretreatment
[11] = Ex 57: day 11 after 5-FU, pretreatment
[12] = Ex 51: day 5 after CP, 2 μmoles/mouse
[13] = Ex 52: days 5 and 7 after CP, 0.2-2.0 μmoles/mouse, except 0.2 on day 5
[14] = Ex 53: day 5 after CP, palmitoylguanosine 2.0, palmitoyldeoxyguanosine 1.0 μmoles/mouse
[15] = Ex 53: day 7 after CP, palmitoylguanosine 1.0 and 2.0, palmitoyldeoxyguanosine 1.0 μmoles/mouse

CCCCCCCCCCCCCCCC(=O)OC[C@H]1O[C@@H](n2c(Br)nc3c(=O)[nH]c(N)nc32)[C@H](O)[C@@H]1O [palmitoyl-8-bromoguanosine]
number of myelocytes (femoral bone marrow) [1]: significantly greater

monopalmitoylguanosine 2′,3′-acyclic dialcohol
number of myelocytes (femoral bone marrow) [1]: significantly greater
spleen weight [1]: significantly elevated
spleen weight [2, 8]: significantly elevated

CCCCCCCCCCCCCCCC(=O)OC[C@H]1O[C@@H](n2cnc3c(=O)[nH]cnc32)C[C@@H]1O
Neutrophils [3]: significantly increased
total leukocytes [3]: significantly increased
spleen weights ([1]; Ex 44: day 5, 4 injections): significantly greater
spleen weights ([1]; Ex 44: day 10, 9 injections, vs Tween 80): significantly greater
neutrophil counts ([1]; Ex 44: day 10, 9 injections): significantly greater
total leukocyte counts ([1]; Ex 44: day 10, 9 injections): significantly greater
neutrophil counts [2, 9]: significantly elevated
total leukocyte counts [2, 9]: significantly elevated
spleen weight ([2]; Ex 48: day 5 after CP, 2.5 μmoles/mouse i.p. daily): significantly elevated
spleen weight ([2]; Ex 48: day 7 after CP, 2.5 μmoles/mouse): significantly increased
spleen weight [2, 8]: significantly elevated

OC[C@H]1O[C@@H](n2cnc3c(O)ncnc32)[C@H](O)[C@@H]1O [inosine, reference compound]
induced maturation into functional neutrophils [4]: no effect

Palmitoyl-2′-Deoxyguanosine [palmitoyldeoxyguanosine]
platelet counts ([5]; Ex 57: day 5 after 5-FU, pretreatment 1 μmole/mouse i.p. daily 3 days): significantly elevated
platelet counts [5, 10]: significantly higher
total neutrophil counts [5, 10]: significantly higher
spleen weight ([5]; Ex 57: day 8 after 5-FU, pretreatment 1 μmole/mouse): significantly higher
lymphocyte counts [5, 11]: significantly higher
platelet counts [5, 11]: significantly higher
spleen weights [5, 11]: significantly higher
total neutrophil counts [5, 11]: significantly higher
total white blood cell counts [5, 11]: significantly higher
number of myelocytes (femoral bone marrow) [1]: significantly greater
spleen weight [1]: significantly elevated
Lymphocytes ([6]; day 10 after CP, 10 μmoles/rat): significantly elevated
Platelets ([6]; day 10 after CP, 10 μmoles/rat): significantly elevated
spleen weight ([6]; day 10 after CP, 10 μmoles/rat): significantly elevated
white blood cell counts ([6]; days 5, 7 and 10 after CP 40 mg/kg, 10 μmoles/rat i.p. daily): significantly elevated
total neutrophil counts ([6]; days 5, 7 and 10 after CP, 10 μmoles/rat): significantly elevated
total neutrophil counts [2, 12]: significantly elevated
white blood cell counts [2, 12]: significantly elevated
spleen weight ([2]; Ex 51: day 5 after CP, 2 μmoles/mouse i.p. daily, vs Tween-80): significantly elevated
spleen weight ([2]; Ex 52: days 5 and 7 after CP, 0.2, 0.4, 1.0, 2.0 μmoles/mouse, except 0.2 on day 5): significantly elevated
total neutrophil counts [2, 13]: significantly elevated
white blood cell counts [2, 13]: significantly elevated
spleen weight [2, 14]: significantly elevated
total neutrophil counts [2, 14]: significantly elevated
white blood cell counts [2, 14]: significantly elevated
spleen weight [2, 15]: significantly elevated
total neutrophil counts [2, 15]: significantly elevated
white blood cell counts [2, 15]: significantly elevated
potency in elevating spleen weight and cell counts vs palmitoylguanosine ([2]; Ex 53: vs the same or a 2-fold greater dose of palmitoylguanosine): more potent
spleen weight ([2]; Ex 54: day 5 after CP, doses of 0.2 μmoles/mouse or greater): significantly elevated
white blood cell counts ([2]; Ex 54: day 5 after CP, doses of 0.4 μmoles/mouse or greater): significantly elevated
white blood cell counts ([2]; Ex 54: day 7 after CP, all doses 0.04-0.8 μmoles/mouse): statistically significant differences
spleen weight ([2]; Ex 54: day 7 after CP, all doses except 0.04 μmoles/mouse): significantly elevated
total neutrophil counts ([2]; Ex 54: days 5 and 7 after CP, all 6 doses 0.04-0.8 μmoles/mouse): significantly elevated

Nc1nc2c(ncn2[C@H]2C[C@H](O)[C@@H](CO)O2)c(=O)[nH]1 [dG, deoxyguanosine]
% Dead Cells ([7]; 24 hr after IL-3 wash, PdG or dG 10 micrograms per milliliter without IL-3, +IL3 = with IL-3): 15.5 ± 0.5%
% Dead Cells ([7]; 40 hr after IL-3 wash, 10 micrograms per milliliter): 21.5 ± 3.5 %
% Dead Cells ([7]; 60 hr after IL-3 wash, 10 micrograms per milliliter): 46.3 ± 10.3%
% Dead Cells ([7]; 84 hr after IL-3 wash, 10 micrograms per milliliter): 68.3 ± 6.0%
